Target: T1, Beta-glucuronidase (Homo sapiens, UniProt P08236)
T1 sequence (P08236 whole entry): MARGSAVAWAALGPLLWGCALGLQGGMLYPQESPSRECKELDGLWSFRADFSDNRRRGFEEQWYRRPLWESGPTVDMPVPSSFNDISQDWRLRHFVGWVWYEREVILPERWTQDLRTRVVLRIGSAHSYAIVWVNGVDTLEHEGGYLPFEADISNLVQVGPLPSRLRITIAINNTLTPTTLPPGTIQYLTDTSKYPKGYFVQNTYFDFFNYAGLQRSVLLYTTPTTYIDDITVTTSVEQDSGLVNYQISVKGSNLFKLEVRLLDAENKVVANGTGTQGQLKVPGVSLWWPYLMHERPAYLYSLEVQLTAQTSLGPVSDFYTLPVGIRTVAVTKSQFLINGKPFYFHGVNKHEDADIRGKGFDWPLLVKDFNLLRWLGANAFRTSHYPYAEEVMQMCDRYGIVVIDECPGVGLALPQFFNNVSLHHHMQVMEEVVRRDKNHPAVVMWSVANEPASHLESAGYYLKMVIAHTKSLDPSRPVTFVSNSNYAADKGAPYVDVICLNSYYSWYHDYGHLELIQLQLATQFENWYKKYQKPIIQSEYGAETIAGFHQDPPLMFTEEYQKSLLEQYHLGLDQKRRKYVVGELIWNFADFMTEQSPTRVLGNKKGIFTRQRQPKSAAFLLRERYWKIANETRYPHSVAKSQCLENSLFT
Test: Inhibition of beta-glucuronidase (unknown origin) using p-nitrophenyl-beta-D-glucuronide as substrate pre-incubated for 30 mins followed by substrate addition by spectrophotometric method

IC50: 350 nM
SMILES: CCN(CC)C(=O)C1=C(C)N=C(S)NC1c1cccs1 (stereo unspecified)
